# According to US20050026950A1, “Methods of therapeutic treatment using retinoids to achieve consistent bioavailability” (Allergan, Inc., priority 2003, published 2005):
# Where two headings read alike, the source gives them in different places.
# Tests used:
# [1] = tested on: RXRs; assay: RXR activation; type: cell-based
# [2] = tested on: RARs; assay: RAR activation; type: cell-based
# [3] = cited from earlier work
# [4] = oral, cited from earlier work
# [5] = published data (N = 525); cited from earlier work
# [6] = published data (N = 525); cited from earlier work; remark: listed apart in the source
# [7] = molecular target: T1, RAR-α (Homo sapiens, UniProt P10276); assay: RAR-α activity; type: cell-based
# T1 sequence (P10276 1-462): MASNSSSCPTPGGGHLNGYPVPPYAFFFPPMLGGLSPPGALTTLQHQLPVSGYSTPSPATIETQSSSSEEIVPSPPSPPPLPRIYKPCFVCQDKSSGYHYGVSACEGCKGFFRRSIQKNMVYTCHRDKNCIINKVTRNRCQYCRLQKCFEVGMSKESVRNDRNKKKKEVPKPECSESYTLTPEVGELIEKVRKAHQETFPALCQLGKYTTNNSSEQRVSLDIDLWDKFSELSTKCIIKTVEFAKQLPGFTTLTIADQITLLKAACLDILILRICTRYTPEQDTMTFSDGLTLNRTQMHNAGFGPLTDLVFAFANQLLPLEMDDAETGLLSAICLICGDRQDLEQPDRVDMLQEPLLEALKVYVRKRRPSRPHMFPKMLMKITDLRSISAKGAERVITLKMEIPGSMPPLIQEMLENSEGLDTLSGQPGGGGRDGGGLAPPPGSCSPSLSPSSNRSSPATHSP
# [8] = Food effect (high-fat meal vs 8-10 hour fast) on pharmacokinetics of tazarotenic acid after oral tazarotene in normal healthy subjects; type: in vivo, human; conditions: 6.3 mg oral tazarotene, fed vs fasted
# Source text: For the purposes of this application, the bioavailability of a drug may be based on the human pharmokinetic parameters of maximum blood concentration (Cmax) and Area under the blood concentration-time curve (AUC).
# [9] = Patient with severe psoriasis taking Ortho-Novum treated with tazarotene; type: in vivo, human; conditions: female, human, in vivo, tazarotene 6 mg per day, mean ±SD
# Source text: The patient presents symptoms of severe psoriasis. The symptoms include lesions approximately 4 to 10 centimeters across appearing as raised patches of wine red skin many of which are covered in silvery white scales. The lesions are mostly dry and rough, and quite often noticeably warm to the touch. The lesions are present on the elbows, knees, scalp, and groin area. The patient experiences intense burning and itching associated with the lesions.
# The patient is currently taking Ortho-Novum® for contraception.
# Tazarotene at a dose of 6 mg per day is prescribed.
structure (smiles),measurement,setting,value
CC1(C)CC[S+]([O-])c2ccc(C#Cc3ccc(C(=O)O)cn3)cc21 (centres unmarked) [AGN 190844],activation of the RXRs,[1],does not activate either the RARs or the RXRs
same,activation of the RARs,[2],does not activate either the RARs or the RXRs
COc1cc(C)c(/C=C/C(C)=C/C=C/C(C)=C/C(=O)O)c(C)c1C [acitretin],effect on contraceptive effect of microdosed progestin “minipill” preparations,[3]; in vivo,interferes with the contraceptive effect
same,impact of food on bioavailability,[4],bioavailability is increased in the presence of food
same,Alopecia,[5],319 (60.8) number (%) of patients
same,Arthralgia,[5],102 (19.4) number (%) of patients
same,Atrophy of skin,[5],64 (12.2) number (%) of patients
same,Back pain,[5],41 (7.8) number (%) of patients
same,Cheilitis,[5],429 (81.7) number (%) of patients
same,Dry Skin,[5],174 (33.1) number (%) of patients
same,Dry mouth/Oral dryness,[5],76 (14.5) number (%) of patients
same,Epistaxis,[5],61 (11.6) number (%) of patients
same,Erythematous rash/Erythema,[5],57 (10.9) number (%) of patients
same,Hyperesthesia,[5],66 (12.6) number (%) of patients
same,Nail Disorder,[5],170 (32.4) number (%) of patients
same,Paresthesia,[5],56 (10.7) number (%) of patients
same,Paronychia/Nail disorder,[5],66 (12.6) number (%) of patients
same,Pruritus,[5],157 (29.9) number (%) of patients
same,Rhinitis,[5],153 (29.1) number (%) of patients
same,Rigors/Chills,[5],67 (12.8) number (%) of patients
same,Skin peeling/Desquamation,[5],345 (65.7) number (%) of patients
same,Sticky skin/Skin disorder,[5],129 (24.6) number (%) of patients
same,Xerophthalmia/Eye disorder,[5],112 (21.3) number (%) of patients
C=C(c1ccc(C(=O)O)cc1)c1cc2c(cc1C)C(C)(C)CCC2(C)C [bexarotene],effect on plasma concentration of tamoxifen,[3]; coadministration with tamoxifen,reduced plasma concentration of tamoxifen
same,impact of food on bioavailability,[4],bioavailability is increased in the presence of food
CC1=C(/C=C/C(C)=C/C=C/C(C)=C\C(=O)O)C(C)(C)CCC1 [isotretinoin],effect on blood concentrations of ethinyl estradiol and norethindrone,[3]; coadministered contraceptive tablets,decreases blood concentrations
same,total dose needed to reach the same peak blood concentration in the fasted state as following a high fat meal,[4]; fasted vs high fat meal,more than doubled
same,impact of food on bioavailability,[4],bioavailability is increased in the presence of food
same,Cheilitis,[6],472 (90.2) number (%) of patients
same,Conjunctivitis,[6],201 (38.4) number (%) of patients
same,Desquamation central face/Desquamation,[6],187 (35.8) number (%) of patients
same,Dry Skin,[6],172 (32.9) number (%) of patients
same,Dry nose,[6],136 (26.0) number (%) of patients
same,Epistaxis,[6],121 (23.1) number (%) of patients
same,Fingertip peeling/Desquamation,[6],63 (12.0) number (%) of patients
same,Headache,[6],44 (8.4) number (%) of patients
same,Irritation of eyes,[6],85 (16.3) number (%) of patients
same,Pruritus,[6],127 (24.3) number (%) of patients
same,Red Scaly face/Desquamation,[6],54 (10.3) number (%) of patients
same,Skin fragility/Skin disorder,[6],164 (31.4) number (%) of patients
CC1(C)CCSc2ccc(C#Cc3ccc(C(=O)O)cn3)cc21 [tazarotenic acid],RAR-α activity,[7],minimal RAR-α activity
same,90% confidence intervals (CI) of AUC ratios (test/reference),[8],completely within the 80-125% boundary
same,Effect of high-fat meal on bioavailability or pharmacokinetics of tazarotenic acid,[8]; single and multiple dose,does not substantially affect
same,activation of the RXRs,[1],does not activate the RXRs
same,receptor specificity and selectivity,"[2]; RARs, RAR-β and RAR-γ",specificity for the RARs and selectivity for RAR-β and RAR-γ
same,AUC(0-t),[9]; read-out: AUC0-24 for tazarotenic acid,379 ± 78 ng·h/mL
same,Cmax,[9]; read-out: Cmax for tazarotenic acid,111 ± 37 ng/mL
